Test results published in patent US20240269094A1, “Treatment of canine dermatitis and skin irritation” (priority 2023, published 2024).
“Also recorded” adds a separate entry of the source. Where two headings read alike, the source gives them in different places.

Experiments:
TRPM8 [1] = molecular target: T1, TRPM8 (Homo sapiens, UniProt Q7Z2W7); assay: Bioassay of FEMA 4557 in TRPM8 (laboratory of Prof. Seok-Yong Lee, FIG. 4); format: cell-based
Excerpt: (§1) FIG. 4 Bioassay of FEMA 4557 (labeled as BUDA on the graph) in TRPM8 and TRPA1. Data from the laboratory of Prof. Seok-Yong Lee at Duke University.
(§2) FIG. 4 Bioassay of FEMA 4557 (labeled as BUDA) in TRPM8 and TRPA1. Data of Prof. Seok-Yong Lee at Duke University.

TRPA1 [2] = molecular target: T2, TRPA1 (Homo sapiens, UniProt O75762); assay: Bioassay in cells transfected with TRPA1 (FIG. 4); format: cell-based
T2 construct: expressed in transfected cells
Excerpt: as §1, §2

TRPM8 [3] = molecular target: T1, TRPM8; set-up: EC50; other: Johnson, 2.2/2.2; conditions: Ref. 5 (Johnson et al., 2018); cited from earlier work
[4] = tested on: canine dermatitis, scratching and licking; assay: Topical treatment of canine skin irritation (case studies); format: in vivo, dog
Method: The Applicant gave the dog's owner an airless pump dispenser containing 8% wt/vol of FEMA 4557 dispersed in 4 mg/ml of carbapol 980, formulated with 1% ethanol and 1% menthol, and instructed him to apply the gel to the skin of the dog's belly and groin.
A twelve-year-old West Highland Terrier had periodic episodes of seasonal skin allergy. […] The owner of the dog, who had access to a pharmacy, applied nystatin ointment and a potent skin steroid cream containing […].
Next, a 20% wt/vol FEMA 4557 solution, dissolved in propylene glycol, was applied to the interdigital folds of the paws with a cotton-tipped applicator (FIG. 9).

TRPA1 [5] = molecular target: T2, TRPA1; conditions: Johnson et al. 2018; applicant could not repeat; cited from earlier work
philtrum skin = assay: Philtrum (skin) bioassay of cooling; format: in vivo, human
Method: FIG. 5. The philtrum bioassay. Cooling agents, prepared as a or in solution are applied to the philtrum skin. Cooling intensity is rated on a scale of 0 to 3, with 0=no changes in sensation, 1=a slight feeling of coolness, cold or tingling, 2=a clearcut feeling of coolness of cold, and 3=a robust feeling of coolness of cold. The duration of cooling was recorded until two zeroes were measured 10 min apart.
TRPM8 EC50 Receptor Assay. […] A receptor assay is a standard tool and can be done quickly. For example, in a 384-plate assay, you can easily test 10 compounds and get dose-response data. For a chemical agonist, an in vitro TRPM8 assay generates an EC50 (median effective concentration). But the quantitative correlation between the EC50 on TRPM8 and cooling sensation was vague. That is, the science was “roughly” predictive, but there was considerable uncertainty for each agonist. […] Philtrum (Skin) Assay. For cooling sensations on the skin, it is necessary to test the substance on the skin. Wei proposed the use of the skin on the philtrum as a test site for cooling activity of chemicals (FIG. 5). The test substance is dissolved in a carrier, such as solvent, gel, or ointment and applied to the philtrum, a surface area of […]. The subject records sensations on the philtrum and environs as:
The subject is given a form to record observations and instructions to mark sensations on the philtrum and environs as: 0=no changes in sensation, 1=a slight feeling of coolness, cold, or tingling, 2=a clearcut feeling of coolness or cold, and 3=a robust feeling of coolness and cold.
The intervals for measurements are usually at 5, to 15 min after application, until two successive zeros are obtained. The philtrum application site is the midline groove above the upper lip border and vermilion. The gel is placed on the philtrum with a cotton-tipped applicator up to the nasolabial folds and sometimes, but not deliberately, on the lower nostrils (subnasale). Cold receptors densely innervate the philtrum skin (FIG. 5), second only to the surfaces of the eyeball and anogenitalia. The lips also have a high density of “cold spots.” Hensel et al. mapped the cold spots on the human face (cited in Dhaka et al., 2008). In animals such as the rat the mystacial pad (nose pad with vibrissae) is abundantly labeled with TRPM8-fibers. “Cold Points” linked to single-unit neuronal discharges can be measured in experimental animals. Wei has direct experience in such experiments (Poree et al., 1989).
Dip a cotton-tipped applicator (Puritan Cotton-tipped applicators, or Q-Tips) into a reservoir bottle containing the liquid or semi-liquid (gel) test substance. The composition adhering to the cotton (about 0.1 mL) is put on the skin. The philtrum site is shown in a cartoon. A subject can practice the method in front of a mirror with a high-intensity light source. Results for test on the philtrum are in Table 8 and FIG. 5. See data in FIG. 6. Cooling agents, prepared as an 8% wt./vol. gel, was tested topically on the philtrum skin assay. The duration of cooling was recorded (min on y-axis). The startling activity of FEMA 4557, cooling for ˜3 hr, was unexpected and surprising. FEMA 3784 is also known as Cool 10 or menthoxypropanediol. […]

[6] = Comparison of classes of cooling agents for applications on the canine skin (grades); set-up: species or system dog; key: A = excellent; B = average; C = poor; F = does not work; conditions: grade
Excerpt: Here are comments on grades assigned to specific classes of cooling agents (Table 3). […] The p-menthane carboxamides cover a wide range of compounds, but they are difficult for skin formulation to achieve a long duration of action. Menthol is short-acting and irritating, especially when it is near the ocular surface. The 1-dialkylphosphorylalkane known as DIPA1-7 (Cryosim-1, 1-dialkylphosphorylheptane) is an excellent skin agent, but costs are high for dermatological applications.

tongue = assay: Oral cavity screen: 15 mg of crystals on the dorsal surface of the tongue; format: in vivo, human
Method: In this discovery, sensory activity in the oral cavity was the first screen. The goal was to identify candidates producing unusual sensations. Test agents, prepared as 15 mg of white crystals, were placed on the dorsal surface of the tongue. The chemical structures and identifying characteristics are in Table 1. […] Related cooling agents were not freezing cold, except for WS-23.

[7] = tested on: canine dermatitis, scratching and licking; assay: Topical treatment of canine skin irritation (case studies); format: in vivo, dog; conditions: 32% wt/vol liquid in 1,2-propanediol, 4% ethanol, 4% l-menthol
oral cavity = conditions: 100 ppm in 5% sucrose; scale of 0 to 9 units; Johnson, 2018; cited from earlier work
[8] = topical liquid or gel, Table 11
[9] = 8% wt/vol gel with ethanol, 1,2-propanediol, carbomer and dispersing agent or 0.2% DIPA-1-7 initiator

T1 sequence (Q7Z2W7 whole entry, species assumed): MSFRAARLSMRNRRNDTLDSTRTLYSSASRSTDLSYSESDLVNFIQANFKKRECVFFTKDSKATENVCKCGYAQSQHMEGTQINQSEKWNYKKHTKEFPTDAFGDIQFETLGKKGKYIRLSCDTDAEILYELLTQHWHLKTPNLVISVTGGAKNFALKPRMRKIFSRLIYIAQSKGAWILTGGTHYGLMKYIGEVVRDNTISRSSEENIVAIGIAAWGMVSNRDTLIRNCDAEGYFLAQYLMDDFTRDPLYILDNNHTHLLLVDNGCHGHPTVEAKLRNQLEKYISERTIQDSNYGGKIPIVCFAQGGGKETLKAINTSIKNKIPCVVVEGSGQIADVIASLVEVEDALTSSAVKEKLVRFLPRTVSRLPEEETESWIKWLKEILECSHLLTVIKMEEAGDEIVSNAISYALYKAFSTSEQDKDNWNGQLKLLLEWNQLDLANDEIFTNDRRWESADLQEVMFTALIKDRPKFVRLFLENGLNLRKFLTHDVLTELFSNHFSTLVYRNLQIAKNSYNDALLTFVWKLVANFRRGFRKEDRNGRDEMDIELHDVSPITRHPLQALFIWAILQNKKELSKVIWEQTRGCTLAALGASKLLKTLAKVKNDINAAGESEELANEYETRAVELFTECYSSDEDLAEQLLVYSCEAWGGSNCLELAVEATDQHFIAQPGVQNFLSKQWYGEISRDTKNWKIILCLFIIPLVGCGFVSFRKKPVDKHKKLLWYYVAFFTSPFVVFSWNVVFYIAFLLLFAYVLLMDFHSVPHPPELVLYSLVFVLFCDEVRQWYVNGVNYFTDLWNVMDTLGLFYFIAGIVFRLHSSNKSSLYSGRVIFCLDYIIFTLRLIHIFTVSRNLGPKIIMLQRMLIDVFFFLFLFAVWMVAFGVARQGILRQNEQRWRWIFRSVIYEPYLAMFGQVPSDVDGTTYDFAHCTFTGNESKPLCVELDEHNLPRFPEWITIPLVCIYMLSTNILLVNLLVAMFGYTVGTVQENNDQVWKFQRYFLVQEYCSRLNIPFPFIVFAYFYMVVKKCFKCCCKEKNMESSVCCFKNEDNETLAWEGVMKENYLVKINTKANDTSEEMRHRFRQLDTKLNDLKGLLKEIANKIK
T2 sequence (O75762 whole entry, species assumed): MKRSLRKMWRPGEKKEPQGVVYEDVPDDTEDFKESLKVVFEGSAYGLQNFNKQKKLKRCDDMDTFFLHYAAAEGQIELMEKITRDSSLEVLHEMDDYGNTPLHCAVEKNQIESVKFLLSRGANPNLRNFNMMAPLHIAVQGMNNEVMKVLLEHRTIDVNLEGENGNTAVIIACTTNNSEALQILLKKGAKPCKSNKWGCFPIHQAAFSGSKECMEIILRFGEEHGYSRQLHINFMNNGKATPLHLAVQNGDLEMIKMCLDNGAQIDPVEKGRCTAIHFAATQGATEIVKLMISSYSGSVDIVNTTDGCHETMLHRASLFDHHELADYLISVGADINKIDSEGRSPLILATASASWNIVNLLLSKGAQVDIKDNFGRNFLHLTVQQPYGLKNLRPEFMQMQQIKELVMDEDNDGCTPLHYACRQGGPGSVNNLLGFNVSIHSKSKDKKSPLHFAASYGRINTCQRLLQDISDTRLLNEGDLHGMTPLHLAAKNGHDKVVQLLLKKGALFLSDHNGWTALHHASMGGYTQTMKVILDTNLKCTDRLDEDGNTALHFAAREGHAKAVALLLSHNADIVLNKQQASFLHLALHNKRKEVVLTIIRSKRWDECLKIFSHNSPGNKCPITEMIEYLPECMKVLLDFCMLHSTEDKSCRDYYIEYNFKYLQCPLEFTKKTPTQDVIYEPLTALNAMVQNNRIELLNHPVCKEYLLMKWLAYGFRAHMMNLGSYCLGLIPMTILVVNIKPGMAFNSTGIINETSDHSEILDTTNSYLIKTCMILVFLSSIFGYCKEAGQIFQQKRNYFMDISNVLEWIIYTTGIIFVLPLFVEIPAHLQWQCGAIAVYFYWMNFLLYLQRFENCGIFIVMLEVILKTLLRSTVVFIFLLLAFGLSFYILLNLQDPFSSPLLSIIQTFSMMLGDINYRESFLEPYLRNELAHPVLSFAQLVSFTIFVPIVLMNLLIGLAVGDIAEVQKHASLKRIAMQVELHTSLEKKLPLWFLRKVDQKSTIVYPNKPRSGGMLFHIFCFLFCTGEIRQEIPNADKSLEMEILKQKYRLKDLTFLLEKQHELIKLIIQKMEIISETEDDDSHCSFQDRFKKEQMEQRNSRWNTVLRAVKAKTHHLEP

Question: For `CCNC(=O)C(CC)(C(C)C)C(C)C` [FEMA 4557, N-ethyl-2,2-diisopropylbutanamide], which “EC50 potency relative to l-menthol” value (TRPM8 [1]; FIG. 4) is on record?
Answer: about 1/30

Question: What about the EC50 (TRPM8 [1]; FIG. 4, estimated) of the same compound?
Answer: 410 µM

Question: And the “activity on TRPM8 as % of the activity of l-menthol” value (TRPM8 [1]; further experiments by the applicant)?
Answer: 10%

Question: What about the “potency relative to menthol” value (TRPM8 [1]; tests by Prof Lee (FIG. 4)) of the same compound?
Answer: < 0.1

Question: What about the “activity on TRPA1” value (TRPA1 [2]) of the same compound?
Answer: absence of activity; also recorded: not active

Question: What about the EC50 (TRPM8 [3]) of the same compound?
Answer: 1600 nM

Question: What about the scratching and licking ([4]; Study 2, Dachshund, 8% wt/vol gel on belly and groin, within one day) of the same compound?
Answer: scratching and licking were reduced

Question: And the redness and swelling ([4]; Study 2, after three days of daily application of 8% gel)?
Answer: the redness and swelling disappeared

Question: And the licking of paws ([4]; Study 3, 20% wt/vol solution in propylene glycol on interdigital folds)?
Answer: stopped licking its front paws

Question: What about the scratching ([4]; Study 3, West Highland Terrier, 8% gel on groin, hindquarters, perianal area) of the same compound?
Answer: stopped the scratching

Question: And the “signs of skin discomfort” value ([4]; Study 3, after five days of treatment)?
Answer: All signs of skin discomfort disappeared

Question: What about the “anti-itch effect of topical formulations” value ([4]; topical gel or solution, insect bites, dermatitis, allergies) of the same compound?
Answer: effectively treated the itch; also recorded: anti-itch effects on flea bites and other skin

Question: And the Side-effects [4, 8]?
Answer: None observed

Question: And the “activity on TRPA1 as reported in literature” value (TRPA1 [5])?
Answer: activates TRPA1

Question: And the “average time of cooling” value (philtrum skin; 8% concentration)?
Answer: ≥ 175 min

Question: And the Duration of cooling (philtrum skin; 8% wt./vol. gel, FIG. 6)?
Answer: ~3 h

Question: And the “Comments: quality of sensation on philtrum skin” value (philtrum skin; 8% wt/vol)?
Answer: icy cold sensations, prolonged cooling,

Question: What about the “duration of effect of topical gel” value (philtrum skin; [9]) of the same compound?
Answer: ≥ 3 h

Question: What about the “onset of topical gel” value (philtrum skin; [9]) of the same compound?
Answer: less than 3 min

Question: And the Duration of cooling (philtrum skin; 8% wt/vol on philtrum)?
Answer: 180+ min

Question: And the total therapeutic duration (philtrum skin; 16 to 32%)?
Answer: at least 6 hr

Question: And the “after effect: further cooling on the skin” value (philtrum skin; 16 to 32%, revealed by warm towel)?
Answer: 3 h

Question: And the “cooling duration compared to menthol” value (philtrum skin; >180/25)?
Answer: > 7 fold

Question: And the Duration-Skin (philtrum skin; Wei, Table 6, see FIG. 6)?
Answer: 3+ Hours

Question: And the Duration of cooling (philtrum skin; concentrations ≥5%, FIG. 7)?
Answer: ≥ 1 h

Question: What about the “skin tissue irritation or inflammation” value (philtrum skin; concentrations ≥5%, up to 50% wt/vol) of the same compound?
Answer: not observed or detected

Question: And the “average time of cooling” value (philtrum skin; first concentration of '2.4 and 8%' (2%))?
Answer: 50 min

Question: And the “effective concentration for topical activity on the skin” value (philtrum skin; in vivo)?
Answer: ≥ 5%

Question: What about the “average time of cooling” value (philtrum skin; second concentration of '2.4 and 8%' (4%)) of the same compound?
Answer: 95 min

Question: What about the Duration of cooling (philtrum skin; single dose of the 16 to 32% solution) of the same compound?
Answer: ~3 h

Question: And the “sensation on the philtrum” value (philtrum skin; solution at ≥64%)?
Answer: pleasant and robust cool

Question: And the “adverse sensations of stinging cold” value (philtrum skin; solution at ≥64% on the philtrum)?
Answer: No cold stinging sensations were felt

Question: What about the “tolerability on the skin” value (philtrum skin; solutions of ≥32%) of the same compound?
Answer: well-tolerated

Question: And the Onset (philtrum skin; [8])?
Answer: ~10 min

Question: And the “Absence of Irritancy” value [6]?
Answer: A

Question: What about the Potency [6] of the same compound?
Answer: C

Question: What about the “Rapid Onset” value [6] of the same compound?
Answer: B

Question: And the “Safety in Use” value [6]?
Answer: A

Question: And the “Sufficient Duration” value [6]?
Answer: A+

Question: What about the “Effects of 15 mg on tongue: duration” value (tongue) of the same compound?
Answer: > 35 min

Question: What about the “Effects of 15 mg on tongue: sensation” value (tongue) of the same compound?
Answer: stinging, freezing, and painful cold on the throat; also recorded: stinging, painful freezing cold in throat

Question: What about the “Effects of 15 mg on tongue: sensation” value (tongue; listed as 4557) of the same compound?
Answer: stinging, painful cold

Question: And the “effect on scratching and rashes” value [7]?
Answer: effective for scratching caused by bites of ectoparasites and rashes caused by yeast infection

Question: And the “Cooling Intensity Oral Cavity Scaled” value (oral cavity)?
Answer: 3.3
